Series [1] can be described thus: Dynamic surface tension of aqueous solutions, maximum bubble pressure method. The series is classed as physicochemical. Conditions: for γ at 0.1 wt %, 0.1 b/s / γ at 0.1 wt %, 1 b/s / γ at 0.1 wt %, 6 b/s / γ at 0.1 wt %, 20 b/s: 0.1 wt % in distilled water; for γ limiting, 0.1 b/s / γ limiting, 1 b/s / γ limiting, 6 b/s / γ limiting, 20 b/s: saturated solution made using 1.0 wt % in water.
Text: Dynamic surface tension data were obtained for the soluble portion of these samples using the maximum bubble pressure method at bubble rates from 0.1 bubbles/sec (b/s) to 20 b/s.
The relative efficiency of surface tension reduction can be obtained by comparing surface tension reduction of solutions containing the same amount of different surfactants. Such data are given for 0.1 wt % solutions of the foam control agents at 0.1, 1, 6 and 20 bubbles/second (b/s). The limiting surface tensions at 0.1, 1, 6 and 20 b/s represent the lowest surface tensions in water which can be achieved at the given surface creation rates for a given surfactant regardless of the amount of surfactant used and is used to evaluate the effectiveness of a surfactant. In most cases the limiting surface tension was taken at 1.0 wt % since the foam control agent was insoluble at this concentration. In the case where the foam control agent was soluble at 1.0 wt %, the limiting surface tension was taken at 5.0 wt % (where the samples were insoluble). These values give information about the relative ability to a surfactant to reduce surface defects under near-equilibrium conditions (0.1 b/s) through very dynamic conditions (20 b/s).

The nature of series [2]: Foam test of DOSS solutions with added foam control agent (based on ASTM D 1173-53). The settings on record: for Foam height after 1 min / Foam height after 10 min / Initial foam height: 0.1 wt % foam control agent added to 0.1 wt % DOSS in water; for Initial foam height: ambient temperature. Format: physicochemical. From the text:
Dioctyl sodium sulfosuccinate (DOSS) is a commonly used surfactant in waterborne compositions. DOSS is capable of forming stable foams when dissolved in water. The foam control characteristics of various foam control agents may be assessed by measuring the foam generated by a 0.1 wt % aqueous solution of DOSS and comparing this to the foam generated after the addition of foam control agent to a 0.1 wt % DOSS solution. The DOSS utilized in these measurements was an Aerosol OT 75% surfactant obtained from Cytec Industries. The foaming and foam stability of DOSS were measured using a procedure based upon ASTM D 1173-53 at ambient temperature, typically 23° C.
In these tests, an aqueous solution of DOSS or the filtrate from the DOSS/foam control agent mixture is added from an elevated foam pipette to a foam receiver containing the same solution. The foam height is measured at the completion of the addition (“Initial Foam Height”) and the time required for the foam to dissipate at the air-liquid interface (“Time to 0 Foam”) is recorded. This test provides a comparison between the foaming characteristics of various aqueous compositions. The results for the foam control agents prepared in Examples 1-28 are reported in Table 1 along with comparative data for a 0.1 wt % solution of DOSS with no added foam control agent (Example 29).

The values that follow come from patent publication US6746623B2, “Alkyl glycidyl ether-capped diamine foam controlling agent” (Air Products and Chemicals, Inc., priority 2002, dated 2004).

Molecules are shown by their SMILES.

Turning to `CCCCC(CC)COCC(O)CNCCN` (mixture of isomers) [EDA/1 EHGE], in series [1], the “γ at 0.1 wt %, 0.1 b/s” value stood at 28.6 dyne/cm; the “γ at 0.1 wt %, 1 b/s” value stood at 37.3 dyne/cm; the “γ at 0.1 wt %, 6 b/s” value turned out to be 54.7 dyne/cm; the “γ at 0.1 wt %, 20 b/s” value was 63.3 dyne/cm. Besides, in series [1], the “γ limiting, 0.1 b/s” value was found to be 27.4 dyne/cm; the “γ limiting, 1 b/s” value worked out at 28.3 dyne/cm; the “γ limiting, 6 b/s” value is on record as 30.6 dyne/cm; the “γ limiting, 20 b/s” value is 32.5 dyne/cm. In series [2], the “Foam height after 1 min” value stood at 0.2 cm, the “Foam height after 10 min” value came to 0 cm and the Initial foam height was found to be 1.5 cm.

Turning to `CCCCOCC(O)CN(CCN(CC(O)COCCCC)CC(O)COCCCC)CC(O)COCCCC` (centres unmarked) [EDA/4 BGE], in series [1], the “γ at 0.1 wt %, 0.1 b/s” value came out at 36.7 dyne/cm; the “γ at 0.1 wt %, 1 b/s” value came to 38.9 dyne/cm; the “γ at 0.1 wt %, 6 b/s” value was determined as 44.4 dyne/cm; the “γ at 0.1 wt %, 20 b/s” value is on record as 58.4 dyne/cm. Moreover, in series [1], the “γ limiting, 0.1 b/s” value is given as 35.9 dyne/cm; the “γ limiting, 1 b/s” value worked out at 37.0 dyne/cm; the “γ limiting, 6 b/s” value was 39.2 dyne/cm; the “γ limiting, 20 b/s” value is given as 43.0 dyne/cm. Besides, in series [2], the “Foam height after 1 min” value is 1.3 cm, the “Foam height after 10 min” value was determined as 1.2 cm and the Initial foam height is listed as 1.9 cm.

Regarding `CCCCOCC(O)CNC1CCC(CC2CCC(N(CC(O)COCCCC)CC(O)COCCCC)CC2)CC1` (centres unmarked) [PACM/3 BGE], in series [1], the “γ at 0.1 wt %, 0.1 b/s” value is listed as 50.2 dyne/cm; the “γ at 0.1 wt %, 1 b/s” value is 59.2 dyne/cm; the “γ at 0.1 wt %, 6 b/s” value was determined as 69.1 dyne/cm; the “γ at 0.1 wt %, 20 b/s” value was 71.8 dyne/cm. Also, in series [1], the “γ limiting, 0.1 b/s” value was 47.9 dyne/cm; the “γ limiting, 1 b/s” value is given as 54.0 dyne/cm; the “γ limiting, 6 b/s” value is given as 63.5 dyne/cm; the “γ limiting, 20 b/s” value amounted to 65.8 dyne/cm. Further, in series [2], the “Foam height after 1 min” value is 2.8 cm, the “Foam height after 10 min” value is on record as 1.5 cm and the Initial foam height is listed as 2.5 cm.

For the compound `CCCCOCC(O)CNCCN` (racemic) [EDA/1 BGE], in series [1], the “γ at 0.1 wt %, 0.1 b/s” value is recorded as 46.1 dyne/cm; the “γ at 0.1 wt %, 1 b/s” value amounted to 49.4 dyne/cm; the “γ at 0.1 wt %, 6 b/s” value was 53.4 dyne/cm; the “γ at 0.1 wt %, 20 b/s” value is given as 59.9 dyne/cm. In series [1], the “γ limiting, 0.1 b/s” value is 36.7 dyne/cm; the “γ limiting, 1 b/s” value came to 37.2 dyne/cm; the “γ limiting, 6 b/s” value came to 38.1 dyne/cm; the “γ limiting, 20 b/s” value worked out at 39.8 dyne/cm. For the same compound, in series [2], the “Foam height after 1 min” value is reported as 2.0 cm, the “Foam height after 10 min” value turned out to be 1.4 cm and the Initial foam height was determined as 3.5 cm. Besides, in series [2] (added to the 0.1 wt % aqueous DOSS solution), the “Effect on foaming of DOSS solution (in words)” value is listed as “increase in foaming”.

Regarding `CCCCOCC(O)CN(CC(O)COCCCC)C1CCC(CC2CCC(N(CC(O)COCCCC)CC(O)COCCCC)CC2)CC1` (centres unmarked) [PACM/4 BGE], in series [1], the “γ at 0.1 wt %, 0.1 b/s” value is listed as 70.6 dyne/cm; the “γ at 0.1 wt %, 1 b/s” value turned out to be 71.8 dyne/cm; the “γ at 0.1 wt %, 6 b/s” value is 72.0 dyne/cm; the “γ at 0.1 wt %, 20 b/s” value is given as 72.4 dyne/cm. Further, in series [1], the “γ limiting, 0.1 b/s” value was 58.5 dyne/cm; the “γ limiting, 1 b/s” value was determined as 68.5 dyne/cm; the “γ limiting, 6 b/s” value is listed as 70.5 dyne/cm; the “γ limiting, 20 b/s” value stood at 71.0 dyne/cm. In addition, in series [2], the “Foam height after 1 min” value is on record as 2.1 cm, the “Foam height after 10 min” value was 1.8 cm and the Initial foam height is on record as 2.7 cm.
